These results are taken from patent EP1743640A1, “Use of substituted pyrazoline compounds for the preparation of paediatric medicaments” (LABORATORIOS DEL DR. ESTEVE, S.A., priority 2005, dated 2007).

A word on the Ki: it is a measure of affinity in units of concentration, obtained from inhibition or displacement.

For one test, the target named is T1, CB1-Receptor (Homo sapiens, UniProt P21554).
T1 construct: purchased Receptor Biology, Inc
Briefly: In-vitro determination of affinity to CB1 receptor (radioligand [3H]-CP55940). The test is classed as binding. Here is the method: (§1) I. In-vitro determination of affinity to CB1/CB2-Receptors
(§2) The in-vitro determination of the affinity of the substituted pyrazoline compounds to CB1/CB2-Rezeptors is carried out as described in the publication of Ruth A. Ross, Heather C. Brockie et al., "Agonist-inverse agonist characterization at CB1 and CB2 cannabinoid receptors of L-759633, L759656 and AM630", British Journal of Pharmacology, 126, 665-672, (1999), whereby the transfected human CB1 and CB2 receptors of Receptor Biology, Inc. are used. The radioligand used for both receptors is [^3H]-CP55940. The respective parts of the description is hereby incorporated by reference and forms part of the present disclosure.

The target in the next test is T2, CB2-Receptor (Homo sapiens, UniProt P34972).
T2 construct: purchased Receptor Biology, Inc
The experiment in a line: In-vitro determination of affinity to CB2 receptor (radioligand [3H]-CP55940). In kind it is binding. Here is the method:
as §1, §2

The subject of test [1] is cannabinoid receptors. The experiment in a line: Mouse tetrad model, antagonistic effect against Win 55212-2. Details: unit not given here. The test is classed as in vivo, Male NMRI mice. As to conditions: 5 mg/kg i.v. prior to Win 55212-2 in a dose of 1,25mg/kg i.v. From the text: (§3) Substances with affinity for cannabinoid receptors are known to produce a wide range of pharmacological effects. It is also known that intravenous administration of a substance with affinity for cannabinoid receptors in mice produces analgesia , hypothermia, sedation and catalepsy. Individually, none of these effects can be considered as proof that a tested substance has affinity for cannabinoid-receptors, since all of these effects are common for various classes of centrally active agents. However, substances, which show all of these effects, i.e. substances that are active in this so-called tetrad model are considered to have affinity for the cannabinoid receptors. It has further been shown that cannabinoid receptor antagonists are higly effective in blocking the effects of a cannabinoid agonist in the mouse tetrad model.
(§4) The tetrad model is described, for example, in the publication of A. C. Howlett et al, Intemational Union of Pharmacology XXVII. Classification of Cannabinoid Receptors, Pharmacol Rev 54, 161-202 , 2002 and David R. Compton et al., "In-vivo Characterization of a Specific Cannabinoid Receptor Antagonist (SR141716A) :Inhibition of Tetrahydrocannbinol- induced Responses and Apparent Agonist Activity", J. Pharmacol. Exp. Ther. 277 , 2, 586-594, 1996. The corresponding parts of the description are hereby incorporated by reference.
(§5) Male NMRI mice with a weight of 20-30 g (Harlan, Barcelona, Spain) are used in all of the following experiments.
(§6) Before testing in the behavioral procedures given below, mice are acclimatized to the experimental setting. Pre-Treatment control values are determined for analgesia hot plate latency (in seconds), rectal temperature, sedation and catalepsy.
(§7) In order to determine the agonistic activty of the substance to be tested, the mice are injected intravenously with the substance to be tested or the vehicle alone. 15 minutes after injection, latency in hot plate analgesia is measured. Rectal temperature, sedation and catalepsy are measured 20 minutes after injection.
In order to determine the antagonistic activity the identical procedure is used as for the determination of the agonistic effects, but with the difference that the substance to be evaluated for its antagonistic activity is injectected 5 minutes before the intravenous injection of 1.25 mg/kg Win-55,212 a known cannabinoid-receptor agonist.
(§8) The hot plate analgesia is determined according to the method described in Woolfe D. et al. "The evaluation of analgesic action of pethidine hydrochloride (Demerol)", J. Pharmacol. Exp. Ther. 80, 300-307,1944. The respective description is hereby incorporated by reference and forms part of the present disclosure.
(§9) The mice are placed on a hot plate (Harvard Analgesimeter) at 55 ± 0.5 °C until they show a painful sensation by licking their paws or jumping and the time for these sensations to occur is recorded. This reading is considered the basal value (B). The maximum time limit the mice are allowed to remain on the hot plate in absence of any painful response is 40 seconds in order to prevent skin damage. This period is called the cut-off time (PC).
(§10) Fifteen minuts after the administration of the substance to be tested, the mice are again placed on the hot plate and the afore described procedure is repeated. This period is called the post-treatment reading (PT).
(§11) The degree of analgesia is calculated from the formula : %MPE of Analgesia = (PT-B)/(PC-B) × 100 [formula]
(§12) Sedation and ataxia is determined according to the method described in Desmet L. K. C. et al. "Anticonvulsive properties of Cinarizine and Flunarizine in Rats and Mice", Arzneim. -Forsch. (Frug Res) 25, 9, 1975. The respective description is hereby incorporated by reference and forms part of the present disclosure.
The chosen scoring system is • 0: no ataxia; • 1: doubful; • 2: obvious calmness and quiet; • 3 pronounced ataxia; prior to as well as after treatment. […]

The subject of test [2] is cannabinoid receptors. Briefly: Mouse tetrad model, agonistic effect. In kind it is in vivo, Male NMRI mice. Details: key to Agonistic effect D: Sedation: % sedation = mean score (0-3 scale)/3 × 100; Agonistic effect A: Hot-Plate test / Agonistic effect B: Hypothermia / Agonistic effect C: Catalepsy: unit not given here. As to conditions: 5 mg/kg i.v.
Source text: as §3, §4, §5, §6, §7, §8, §9, §10, §11, §12
The chosen scoring system is • 0: no ataxia; • 1: doubful; • 2: obvious calmness and quiet; • 3 pronounced ataxia; prior to as well as after treatment.
The percentage of sedation is determined according to the formula: %of sedation = arithmetic mean/3 × 100 [formula]
Hypothermia is determined according to the method described in David R. Compton et al. "In-vivo Characterization of a Specific Cannabinoid Receptor Antagonist (SR141716A) Inhibition of Tetrahydrocannbinol- induced Responses and Apparent Agonist Activity", J. Pharmacol Exp Ther. 277 , 2, 586-594, 1996. […]

Bounds are passed on as bounds.

T2 sequence (P34972 whole entry): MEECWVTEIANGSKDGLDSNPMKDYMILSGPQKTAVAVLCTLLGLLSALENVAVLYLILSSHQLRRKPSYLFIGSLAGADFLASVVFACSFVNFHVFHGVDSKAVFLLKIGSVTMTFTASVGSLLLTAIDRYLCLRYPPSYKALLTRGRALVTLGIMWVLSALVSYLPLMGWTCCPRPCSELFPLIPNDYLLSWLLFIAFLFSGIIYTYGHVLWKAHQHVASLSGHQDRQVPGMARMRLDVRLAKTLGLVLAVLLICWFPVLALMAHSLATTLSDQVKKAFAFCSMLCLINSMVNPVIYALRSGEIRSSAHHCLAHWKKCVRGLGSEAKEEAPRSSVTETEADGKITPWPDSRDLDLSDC
T1 sequence (P21554 whole entry): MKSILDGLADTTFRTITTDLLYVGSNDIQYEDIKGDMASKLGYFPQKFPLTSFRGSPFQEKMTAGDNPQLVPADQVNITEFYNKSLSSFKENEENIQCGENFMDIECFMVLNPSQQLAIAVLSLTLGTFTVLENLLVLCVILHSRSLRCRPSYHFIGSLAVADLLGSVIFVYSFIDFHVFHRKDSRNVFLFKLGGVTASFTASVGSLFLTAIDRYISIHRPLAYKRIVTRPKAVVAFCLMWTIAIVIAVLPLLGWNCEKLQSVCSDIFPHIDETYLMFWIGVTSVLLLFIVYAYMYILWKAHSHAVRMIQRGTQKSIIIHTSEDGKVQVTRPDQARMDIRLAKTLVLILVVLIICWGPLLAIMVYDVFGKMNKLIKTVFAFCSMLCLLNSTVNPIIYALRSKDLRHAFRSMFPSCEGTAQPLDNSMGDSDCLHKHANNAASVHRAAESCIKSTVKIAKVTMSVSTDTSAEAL

Turning to `O=C(NN1CCCCC1)C1=NN(c2ccc(Cl)cc2Cl)C(c2ccc(Cl)cc2)C1` (stereo not shown) [Example 1, N-piperidinyl-5-(4-chlorophenyl)-1-(2,4-dichlorophenyl)-4,5-dihydro-1H-pyrazole-3-carboxamide], at CB1-Receptor, the Ki is under 25 nM. This molecule yielded a Ki at CB2-Receptor of over 1000 nM. Moreover, in the test on cannabinoid receptors [1], the “Antagonistic Effect A: Hot-Plate test” value was 74, the “Antagonistic Effect B: Hypothermia” value was determined as 100, the “Antagonistic Effect C: Catalepsy” value is on record as 100 and the “Antagonistic Effect D: Sedation” value is listed as 100. Also, in the test on cannabinoid receptors [2], the “Agonistic effect A: Hot-Plate test” value turned out to be 0, the “Agonistic effect B: Hypothermia” value is 0, the “Agonistic effect C: Catalepsy” value stood at 0 and the “Agonistic effect D: Sedation” value came to 0.

`O=C(C1=NN(c2ccc(Cl)cc2Cl)C(c2ccc(Cl)cc2)C1)N1CCCCC1` (stereo not shown) [Example 5, (5-(4-Chloro-phenyl)-1-(2,4-dichloro-phenyl)-4,5-dihydro-1 H-pyrazol-3-yl]-piperidin-1-yl-methanone]: at CB2-Receptor, the Ki is about 1000 nM. Besides, in the test with cannabinoid receptors [1], the “Antagonistic Effect A: Hot-Plate test” value is listed as 50, the “Antagonistic Effect B: Hypothermia” value was 40, the “Antagonistic Effect C: Catalepsy” value is given as 20 and the “Antagonistic Effect D: Sedation” value was 20. In the test with cannabinoid receptors [2], the “Agonistic effect A: Hot-Plate test” value worked out at 0, the “Agonistic effect B: Hypothermia” value came to 50, the “Agonistic effect C: Catalepsy” value was determined as 0 and the “Agonistic effect D: Sedation” value is 0.
